Data taken from PMC5061434, “Bacterial Expression, Purification and In Vitro Phosphorylation of Full-Length Ribosomal S6 Kinase 2 (RSK2)” (PLoS ONE, 2016).

Columns and labels:
[1] = molecular target: T1, Ribosomal S6 kinase 2 (RSK2) (Mus musculus, UniProt P18654); assay: ADP-Glo kinase assay with S6 peptide at […] ATP; also thermal shift (SYPRO Orange, ~[…]°C); assay type: biochemical
T1 construct: gene Rps6ka3; full-length mouse RSK2 (amino acids 1–740), expressed in E. coli, phosphorylated in vitro by ERK2 and PDK1

[2] = molecular target: full-length murine ribosomal S6 kinase 2 (RSK2) (mouse) (UniProt P18654); assay: dynamic light scattering; RSK2 at ~0.7 mg/ml, 10°C, 50 mM Tris pH 8.0, 500 mM NaCl, 5 mM 2-mercaptoethanol; dimer of monomers

T1 sequence (P18654 whole entry, the tested form may be a part): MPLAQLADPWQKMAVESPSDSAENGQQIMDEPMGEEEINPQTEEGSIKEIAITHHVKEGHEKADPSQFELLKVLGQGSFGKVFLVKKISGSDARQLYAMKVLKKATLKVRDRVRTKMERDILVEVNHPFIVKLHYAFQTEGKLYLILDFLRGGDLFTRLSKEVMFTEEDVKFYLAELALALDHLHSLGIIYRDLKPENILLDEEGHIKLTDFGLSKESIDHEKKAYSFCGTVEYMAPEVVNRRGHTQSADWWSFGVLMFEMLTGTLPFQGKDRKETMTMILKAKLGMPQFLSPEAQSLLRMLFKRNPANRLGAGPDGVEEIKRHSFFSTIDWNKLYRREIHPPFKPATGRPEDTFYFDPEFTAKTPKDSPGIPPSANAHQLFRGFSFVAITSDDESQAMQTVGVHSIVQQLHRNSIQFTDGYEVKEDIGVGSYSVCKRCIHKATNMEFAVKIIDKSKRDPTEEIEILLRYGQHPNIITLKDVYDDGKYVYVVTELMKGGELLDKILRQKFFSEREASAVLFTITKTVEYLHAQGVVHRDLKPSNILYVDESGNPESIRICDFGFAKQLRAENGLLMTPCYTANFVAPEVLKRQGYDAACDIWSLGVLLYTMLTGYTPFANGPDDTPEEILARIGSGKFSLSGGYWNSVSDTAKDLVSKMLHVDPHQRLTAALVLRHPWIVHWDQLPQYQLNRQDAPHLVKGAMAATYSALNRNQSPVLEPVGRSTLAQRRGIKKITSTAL

IC50 [1] [µM] | stoichiometry N [2] | Compound
~8 |  | CC(=O)O[C@@H]1[C@@H](OC(C)=O)[C@@H](O)[C@H](Oc2c(-c3ccc(O)cc3)oc3cc(O)cc(O)c3c2=O)O[C@H]1C [SL0101]
 | 2 | full-length murine ribosomal S6 kinase 2 (RSK2) (from UniProt P18654 1-740) (enzyme)
